Results on one molecule are retold here after patent US7205320B2, “Phosphodiesterase 4 inhibitors” (Memory Pharmaceuticals Corp., priority 2001, dated 2007).

SMILES strings stand for the structures.

Assay [1] deals with rats. Nature of the assay: Radial arm maze task in rats, in vivo test for learning and memory (MK-801 amnesia). More on the design: species or system rat. As to conditions: MK-801 0.1 mg/kg, i.p., p<0.01. The procedure:
Radial Arm Maze Task in Rats, an In vivo Test for Learning and Memory
The test was performed as previously described (Zhang, H.-T., Crissman, A. M., Dorairaj, N. R., Chandler, L. J., and O'Donnell, J. M., Neuropsychopharmacalogy, 2000, 23, 198–204.). Five days after initial housing, rats (male Spraque-Dawley (Harlan) weighing 250 to 350 g) were placed in the eight-arm radial maze (each arm was 60×10×12 cm high; the maze was elevated 70 cm above the floor) for acclimation for two days. Rats were then placed individually in the center of the maze for 5 minutes with food pellets placed close to the food wells, and then, the next day, in the wells at the end of the arms; 2 sessions a day were conducted. Next, four randomly selected arms were then baited with one pellet of food each. […] Four parameters were recorded: […]) working memory errors, i.e., entries into baited arms that had already been visited during the same trial; 2) reference memory errors, i.e., entries into unbaited arms; 3) total arm entries; and 4) the test duration (seconds), i.e., the time spent in the collection of all the pellets in the maze. […]
(§1) All data were analyzed by analyses of variance (ANOVA); individual comparisons were made using Kewman-Keuls tests. […]

Assay [2] deals with rats. Nature of the assay: Passive avoidance in rats, in vivo test for learning and memory (MK-801 amnesia). As to conditions: MK-801 0.1 mg/kg pretreatment, 24 hours after shock, p<0.001. Also on record: species or system rat. The procedure: Passive Avoidance in Rats, an In vivo Test for Learning and Memory
The test was performed as previously described (Zhang, H.-T., Crissman, A. M., Dorairaj, N. R., Chandler, L. J., and O'Donnell, J. M., Neuropsychopharmacology, 2000, 23, 198–204.). The apparatus (Model E10-16SC, Coulbourn Instruments, Allentown, Pa.) consisted of a two-compartment chamber with an illuminated compartment connected to a darkened compartment by a guillotine door. The floor of the darkened compartment consisted of stainless steel rods through which an electric foot-shock could be delivered from a constant current source. All experimental groups were first habituated to the apparatus the day before the start of the experiment. During the training, the rat (Male Spraque-Dawley (Harlan) weighing 250 to 350 g) was placed in the illuminated compartment facing away from the closed guillotine door for 1 minute before the door was raised. The latency for entering the darkened compartment was recorded. After the rat entered the darkened compartment, the door was closed and a 0.5 mA electric shock was administered for 3 seconds. […] The latency for entering the darkened compartment was recorded for up to 180 seconds, at which time the trial was terminated.
as §1

For the molecule `C[C@]12N[C@H](Cc3ccccc31)c1ccccc12` [MK-801], the “Frequencies of working and reference memory errors compared to control” value with rats [1] is on record as “increased”. Besides, the “Latency for entering the darkened compartment compared to the vehicle” value with rats [2] is reported as “markedly reduced”.
